Measured values: patent publication US10919943B2, “Mutant proteins enabling agrochemical control of plant gene expression” (The Regents of the University of California, priority 2016, dated 2021)

T1: PYR1*^-MANDI (Arabidopsis thaliana, UniProt O49686, A160V/F108A/F159V/K59R/M158I/S122G/T162D/V81I/Y58H)
T1 construct: expressed in transfected cells; host or cells: S. cerevisiae strain MAV99 (selection)
T1 sequence (O49686 1-191 Y58H/K59R/V81I/F108A/S122G/M158I/F159V/A160V/T162D): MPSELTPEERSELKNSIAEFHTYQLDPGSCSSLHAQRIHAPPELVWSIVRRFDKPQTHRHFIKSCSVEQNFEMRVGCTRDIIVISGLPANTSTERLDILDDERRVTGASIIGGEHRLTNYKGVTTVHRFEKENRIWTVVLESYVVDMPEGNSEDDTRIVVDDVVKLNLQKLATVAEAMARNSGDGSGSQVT
T1 sequence (Q9CAJ0 4-511 R199A/D204A/S322D/V393R/R505A partner): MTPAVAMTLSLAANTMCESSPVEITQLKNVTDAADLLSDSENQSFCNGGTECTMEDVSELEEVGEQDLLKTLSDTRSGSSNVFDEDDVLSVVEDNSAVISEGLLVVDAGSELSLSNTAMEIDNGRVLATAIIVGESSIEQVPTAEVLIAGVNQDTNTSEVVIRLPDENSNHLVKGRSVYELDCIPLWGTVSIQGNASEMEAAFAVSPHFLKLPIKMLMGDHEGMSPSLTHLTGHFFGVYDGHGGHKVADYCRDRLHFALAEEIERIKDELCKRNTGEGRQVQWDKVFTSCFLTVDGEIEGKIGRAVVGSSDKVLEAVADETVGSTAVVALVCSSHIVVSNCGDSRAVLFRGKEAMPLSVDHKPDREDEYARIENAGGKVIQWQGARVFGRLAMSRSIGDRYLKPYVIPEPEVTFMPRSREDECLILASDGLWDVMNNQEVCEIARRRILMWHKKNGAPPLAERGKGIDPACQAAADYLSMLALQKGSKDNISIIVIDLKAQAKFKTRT

B1: HAB1*: catalytically inactive orthogonal pentuple HAB1 mutant (protein, listed as Arabidopsis thaliana)
chain: T1 sequence (Q9CAJ0 4-511 R199A/D204A/S322D/V393R/R505A partner)

Assays:
[1] = tested on: 35S::GFP-PYR1*^-MANDI transgenic plants; test: Thermography of leaf temperature after chemical treatment; assay type: in vivo, Arabidopsis thaliana; conditions: for leaf temperature: T1 plants, 24 hours after application, FIG. 10
Excerpt: To examine the effects of over-expressing either PYR1*^-MANDI or HAB1* in Arabidopsis thaliana, we made 35S-driven GFP-PYR1*^-MANDI and GFP-HAB1* constructs by cloning the mutant genes into the binary vector pEGAD, and the resultant plasmids were transformed into Agrobacterium tumefaciens. The floral dip method was used to generate T0 transgenic seed for both constructs and the T0 seed was germinated in soil containing glufosinate to select for transgenic T1 plants. The PYR1*^-MANDI T1 plants isolated were grown for ˜5 weeks and then treated with mandipropamid, using comparisons to wild type Columbia plants and a previously constructed 35S::PYR1^MANDI transgenic strain as controls. The treated plants were thermographed 24 hours after chemical applications to examine leaf temperature, which increases after ABA responses are activated, due to reduced transpiration. To examine different mandipropamid concentrations, the plants were first treated with 1 μM mandipropamid and then 3 days later were treated again with 10 μM mandipropamid.
Several T1 transgenic seed were propagated and 3 homozygous single insertion transgenic lines identified by glufosinate segregation patterns in the T3 seedlings. GFP-PYR1*^-MANDI protein levels were established by western blotting using an anti-GFP antibody, as described above and the three lines had similar levels of protein expression.

PYR1*^-MANDI = target: T1, PYR1*^-MANDI; test: Yeast two hybrid, mandipropamid-induced interaction of HAB1 variants with pBD-PYR1*^-MANDI; assay type: cell-based; conditions: FIG. 6
Excerpt: To investigate the effects of overexpressing HAB1^!-2 in Arabidopsis, we used Agrobacterium mediated transformation to generate 35S::GFP-HAB1^!-2 transgenic plants. HAB1^!-2 was cloned from pACT-HAB1^!-2 into pEGAD, a binary vector suitable for plant transformation, generating a 35S-driven GFP-HAB1^!-2 fusion protein. The clone was transformed into Agrobacterium and the floral dip method used to transform Arabidopsis. After selection of T0 seed on soil containing glufosinate, several T1 seedlings were identified. […] As an alternate strategy, we eliminated HAB1's catalytic activity by introducing a mutation in a conserved metal-ion binding residue (D204), which is homologous to D131A mutation in ABI1, previously shown to eliminate phosphatase activity without disrupting wild type receptor-ABI1 interactions (Liang et al., 2011). We used QuickChange mutagenesis to introduce the D204A mutation into pACT-HAB1^!-2, generating pACT-HAB1^!-3. When tested for mandipropamid induced interactions with pBD-PYR1*^-MANDI, HAB1^!-3 is ˜10-fold less sensitive to mandipropamid relative to HAB1^!-2 (FIG. 5).
D204 is located within HAB1's catalytic active site and binds to one of 3 catalytic Mg^++ ions that participate in catalysis. […] It is likely that disruptions to active site structure introduced by D204A destabilize the PYR1*^-MANDI/HAB1^!-3 interaction relative to HAB1^!-2. We reasoned that suppressor mutations in other HAB1 interface or active site residues could restore sensitivity by strengthening interactions with PYR1*^-MANDI. To identify such suppressors, we mutagenized the pACT-HAB1^!-3 template using NNK mutagenesis in 28 residues located with at the PYR1 binding interface. The residues targeted were: R199, S200, E201, E203, D243, G244, H245, G246, G247, S322, E323, T324, D346, K365, K381, 1383, Q384, W385, Q386, R389, F391, G392, Y404, S431, G433, D436, D492 and N394. The pACT-HAB1^!-3 template was mutagenized in 28 separate NNK mutagenesis reactions using the QuickChange protocol. Mini-libraries, each containing ˜1000 clones, were made for each NNK reaction and plasmid DNA for the 28 mutations prepared, pooled, and then transformed into S. cerevisiae strain MAV99 co-transformed with pBD-PYR1*^-MANDI, and then plated onto selective SD(-Leu,-Trp,-Ura) agar media supplemented with 500 nM mandipropamid. […] S322D and R199A were combined using the Lightning Multi-site Mutagenesis™ (Agilent, USA) method, and the resultant pentuple mutant tested in combination with pBD-PYR1*^-MANDI for sensitivity to mandipropamid using β-galactosidase assays.

Row | Molecule | leaf temperature ([1]; 1 μM mandipropamid) | leaf temperature ([1]; 10 μM mandipropamid (3 days after 1 μM)) | leaf temperature in comparison to wild type control plants ([1]; two homozygous lines, 5 μM mandipropamid, FIG. 11) | mandipropamid sensitivity for binding to pBD-PYR1*^-MANDI (PYR1*^-MANDI)
1 | C#CCOc1ccc(CCNC(=O)C(OCC#C)c2ccc(Cl)cc2)cc1OC (stereo not shown) [mandipropamid] | Neither of the treatments elicited substantial alterations in leaf temperature | Neither of the treatments elicited substantial alterations in leaf temperature | did not reveal differences in leaf temperature | –
2 | B1 | – | – | – | nM sensitivity
